Data: patent publication US10760110B2, “Antibiotic testing and screening system” (priority 2017, dated 2020)
≈ marks a conversion by molar mass, not a printed value. Read-outs that look alike come from different tables or passages of the source.

What was measured:
[1] = test system: K. pneumoniae NVT1001 and its ΔompK35/36 and/or ΔramR mutants; test: Etest MIC, OmpK35/36 loss and AcrAB-TolC overexpression (ΔramR) strains (Table 6); assay type: cell-based, Klebsiella pneumoniae; details: Klebsiella pneumoniae
Method in brief: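 Ceftazidime and cefotaxime were tested by CLSI broth microdilution on the blaOXA-48 pACYC177 transformant of NVT1001, using CLSI 2017 breakpoints. Parent, porin-deleted (ΔompK35/36) and ΔramR strains were tested by Etest, with values between two-fold dilutions rounded up.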

[2] = test system: K. pneumoniae NVT1001 ΔramRΔompK35/36 mutant and its revertants; test: Etest MIC, ΔramRΔompK35/36 mutant and its revertants (Table 7); assay type: cell-based; details: Klebsiella pneumoniae
[3] = ΔramRΔ35/36, ΔramRΔompK35/36 mutant
[4] = ΔramRΔompK35/36::ompK35/36 revertant
[5] = ΔramRΔompK35/36::ompK35 revertant
[6] = ΔramRΔompK35/36::ompK36 revertant
[7] = ΔramRΔompK35/36::ramR revertant
[8] = ΔramRΔompK35/36::ramR::ompK35/36 revertant
[9] = ΔramRΔompK35/36::ramR::ompK35 revertant
[10] = ΔramRΔompK35/36::ramR::ompK36 revertant

Structure (SMILES)	MIC ([1]; WT, NVT1001, read-out: MIC) [µg/mL]	MIC ([1]; Δ35, ΔompK35 mutant) [µg/mL]	MIC ([1]; Δ35/36, ΔompK35/36 mutant) [µg/mL]	MIC ([1]; Δ36, ΔompK36 mutant) [µg/mL]	MIC ([1]; ΔramR mutant) [µg/mL]	MIC ([1]; ΔramRΔ35, ΔramRΔompK35 mutant) [µg/mL]	MIC [1, 3] [µg/mL]	MIC ([1]; ΔramRΔ36, ΔramRΔompK36 mutant) [µg/mL]	MIC [2, 4] [µg/mL]	MIC [2, 5] [µg/mL]	MIC [2, 6] [µg/mL]	MIC [2, 7] [µg/mL]	MIC [2, 8] [µg/mL]	MIC [2, 9] [µg/mL]	MIC [2, 10] [µg/mL]	MIC ([2]; ΔramRΔompK35/36 mutant) [µg/mL]
CCn1cc(C(=O)O)c(=O)c2ccc(C)nc21 [Nalidixic acid, nalidixic acid]	4 (≈ 17.2 µM)	8 (≈ 34.4 µM)	8 (≈ 34.4 µM)	4 (≈ 17.2 µM)	32 (≈ 138 µM)	64 (≈ 276 µM)	32 (≈ 138 µM)	32 (≈ 138 µM)	64	32	64	8	8	8	8	32
CCn1cc(C(=O)O)c(=O)c2cc(F)c(N3CCNCC3)cc21 [Norfloxacin, norfloxacin]	0.25 (≈ 0.783 µM)	0.25 (≈ 0.783 µM)	0.5 (≈ 1.57 µM)	0.25 (≈ 0.783 µM)	2 (≈ 6.26 µM)	2 (≈ 6.26 µM)	2 (≈ 6.26 µM)	2 (≈ 6.26 µM)	2	2	2	0.5	0.25	0.25	0.25	2
CC1COc2c(N3CCN(C)CC3)c(F)cc3c(=O)c(C(=O)O)cn1c23 (stereo not drawn) [Ofloxacin, ofloxacin]	0.25 (≈ 0.692 µM)	0.25 (≈ 0.692 µM)	0.25 (≈ 0.692 µM)	0.25 (≈ 0.692 µM)	2 (≈ 5.53 µM)	2 (≈ 5.53 µM)	2 (≈ 5.53 µM)	2 (≈ 5.53 µM)	2	2	2	0.25	0.25	0.25	0.25	2
